Reference: US9873709B2 (priority 2013, dated 2018)

What follows are compounds tested on JAK1-dependent STAT6 phosphorylation downstream of IL-13 stimulation in TF-1 human erythroleukemia cells (assay: cells). Details: TF-1, read-out: IL-13-pSTAT6 IC50.

| IC50 | Structure (SMILES) |
| --- | --- |
| 30.8 nM | O=C(c1ccc(Nc2nc3c(N4CCC(O)(c5ccc(Cl)cc5)CC4)cccn3n2)cc1)N1CCOC2(CCCNC2)C1 (centres unmarked) [Example 1-225, [4-[[8-[4-(4-chlorophenyl)-4-hydroxy-1-piperidyl]-[1,2,4]triazolo[1,5-a]pyridin-2-yl]amino]phenyl]-(1-oxa-4,8-diazaspiro[5.5]undecan-4-yl)methanone] |
| 58.1 nM | O=C(c1ccc(Nc2nc3c(N4CCC(O)(c5ccc(Cl)cc5)CC4)cccn3n2)cc1)N1CCC2(CC1)CNCCO2 [Example 1-230, [4-[[8-[4-(4-chlorophenyl)-4-hydroxy-1-piperidyl]-[1,2,4]triazolo[1,5-a]pyridin-2-yl]amino]phenyl]-(1-oxa-4,9-diazaspiro[5.5]undecan-9-yl)methanone] |
| 310 nM | O=C(c1ccc(Nc2nc3c(N4CCC(O)(c5ccc(Cl)cc5)CC4)cccn3n2)cc1)N1C[C@H]2CNC[C@H]2C1 [Example 1-235, [(3aR,6aS)-2,3,3a,4,6,6a-hexahydro-1H-pyrrolo[3,4-c]pyrrol-5-yl]-[4-[[8-[4-(4-chlorophenyl)-4-hydroxy-1-piperidyl]-[1,2,4]triazolo[1,5-a]pyridin-2-yl]amino]phenyl] methanone] |
| 120 nM | CN1CCC(N(C)C(=O)c2ccc(Nc3nc4c(N5CCC(C)(c6ccc(Cl)cc6)CC5)cccn4n3)cc2)CC1 [Example 1-262, 4-[[8-[4-(4-chlorophenyl)-4-methyl-1-piperidyl]-[1,2,4]triazolo[1,5-a]pyridin-2-yl]amino]-N-methyl-N-(1-methyl-4-piperidyl)benzamide] |
| 55.7 nM | CNC(=O)CC1(c2ccc(Cl)cc2)CCN(c2cccn3nc(Nc4ccc(C(=O)N(C)C5CCN(C)CC5)cc4)nc23)CC1 [Example 1-299, 4-[[8-[4-(4-chlorophenyl)-4-[2-(methylamino)-2-oxo-ethyl]-1-piperidyl]-[1,2,4]triazolo[1,5-a]pyridin-2-yl]amino]-N-methyl-N-(1-methyl-4-piperidyl)benzamide] |
| 179 nM | CN1CCC(N(C)C(=O)c2ccc(Nc3nc4c(N5CCC(CC(=O)O)(c6ccc(Cl)cc6)CC5)cccn4n3)cc2)CC1 [Example 1-301, 2-[4-(4-chlorophenyl)-1-[2-[4-[methyl-(1-methyl-4-piperidyl)carbamoyl]anilino]-[1,2,4]triazolo[1,5-a]pyridin-8-yl]-4-piperidyl]acetic acid] |
| 23.7 nM | CCOC(=O)N1CC=C(c2cccn3nc(Nc4ccc(C(=O)N(C)C5CCN(C)CC5)cc4)nc23)CC1 [Example 2-1, ethyl 4-[2-[4-[methyl-(1-methyl-4-piperidyl)carbamoyl]anilino]-[1,2,4]triazolo[1,5-a]pyridin-8-yl]-3,6-dihydro-2H-pyridine-1-carboxylate] |

The remaining lines, values behind:

| Structure (SMILES) | IC50 |
| --- | --- |
| O=C(NC1COC2(CCNCC2)C1)c1ccc(Nc2nc3c(N4CCC(O)(c5ccc(Cl)cc5)CC4)cccn3n2)cc1 (centres unmarked) [Example 1-221, 4-[[8-[4-(4-chlorophenyl)-4-hydroxy-1-piperidyl]-[1,2,4]triazolo[1,5-a]pyridin-2-yl]amino]-N-(1-oxa-8-azaspiro[4.5]decan-3-yl)benzamide] | 866 nM |
| O=C(c1ccc(Nc2nc3c(N4CCC(O)(c5ccc(Cl)cc5)CC4)cccn3n2)cc1)N1CC2(CCNC2)C1 [Example 1-224, [4-[[8-[4-(4-chlorophenyl)-4-hydroxy-1-piperidyl]-[1,2,4]triazolo[1,5-a]pyridin-2-yl]amino]phenyl]-(2,7-diazaspiro[3.4]octan-2-yl)methanone] | 111 nM |
| O=C(c1ccc(Nc2nc3c(N4CCC(O)(c5ccc(Cl)cc5)CC4)cccn3n2)cc1)N1CCC2(CCCN2)CC1 [Example 1-226, [4-[[8-[4-(4-chlorophenyl)-4-hydroxy-1-piperidyl]-[1,2,4]triazolo[1,5-a]pyridin-2-yl]amino]phenyl]-(1,8-diazaspiro[4.5]decan-8-yl)methanone] | 79.4 nM |
| O=C(c1ccc(Nc2nc3c(N4CCC(O)(c5ccc(Cl)cc5)CC4)cccn3n2)cc1)N1CCOC2(CCNCC2)C1 [Example 1-231, [4-[[8-[4-(4-chlorophenyl)-4-hydroxy-1-piperidyl]-[1,2,4]triazolo[1,5-a]pyridin-2-yl]amino]phenyl]-(1-oxa-4,9-diazaspiro[5.5]undecan-4-yl)methanone] | 916 nM |
| O=C(c1ccc(Nc2nc3c(N4CCC(O)(c5ccc(Cl)cc5)CC4)cccn3n2)cc1)N1CCCC12CCCNC2 (centres unmarked) [Example 1-233, [4-[[8-[4-(4-chlorophenyl)-4-hydroxy-1-piperidyl]-[1,2,4]triazolo[1,5-a]pyridin-2-yl]amino]phenyl]-(1,9-diazaspiro[4.5]decan-1-yl)methanone] | 164 nM |
| O=C(c1ccc(Nc2nc3c(N4CCC(O)(c5ccc(Cl)cc5)CC4)cccn3n2)cc1)N1C[C@@H]2CCN[C@@H]2C1 [Example 1-234] | 36.1 nM |
| O=C(N[C@H]1[C@@H]2CNC[C@@H]21)c1ccc(Nc2nc3c(N4CCC(O)(c5ccc(Cl)cc5)CC4)cccn3n2)cc1 [Example 1-238, N-[(1R,5S)-3-azabicyclo[3.1.0]hexan-6-yl]-4-[[8-[4-(4-chlorophenyl)-4-hydroxy-1-piperidyl]-[1,2,4]triazolo[1,5-a]pyridin-2-yl]amino]benzamide] | 180 nM |
| O=C(c1ccc(Nc2nc3c(N4CCC(O)(c5ccc(Cl)cc5)CC4)cccn3n2)cc1)N1CC[C@H]2CNC[C@H]21 [Example 1-241, [(3aS,6aS)-3,3a,4,5,6,6a-hexahydro-2H-pyrrolo[2,3-c]pyrrol-1-yl]-[4-[[8-[4-(4-chlorophenyl)-4-hydroxy-1-piperidyl]-[1,2,4]triazolo[1,5-a]pyridin-2-yl]amino]phenyl] methanone] | 115 nM |
| CN1CCC(N(C)C(=O)c2ccc(Nc3nc4c(N5CCC(CC#N)(c6ccc(Cl)c(F)c6)CC5)cccn4n3)cc2)CC1 [Example 1-263, 4-[[8-[4-(4-chloro-3-fluoro-phenyl)-4-(cyanomethyl)-1-piperidyl]-[1,2,4]triazolo[1,5-a]pyridin-2-yl]amino]-N-methyl-N-(1-methyl-4-piperidyl)benzamide] | 18.2 nM |
| CN1CCC(N(C)C(=O)c2ccc(Nc3nc4c(C5=CCN(C(=O)OC6CC6)CC5)cccn4n3)cc2)CC1 [Example 2-2, cyclopropyl 4-[2-[4-[methyl-(1-methyl-4-piperidyl)carbamoyl]anilino]-[1,2,4]triazolo[1,5-a]pyridin-8-yl]-3,6-dihydro-2H-pyridine-1-carboxylate] | 34 nM |
| CN1CCC(N(C)C(=O)c2ccc(Nc3nc4c(C5=CCN(C(=O)CC(C)(C)O)CC5)cccn4n3)cc2)CC1 [Example 2-3, 4-[[8-[1-(3-hydroxy-3-methyl-butanoyl)-3,6-dihydro-2H-pyridin-4-yl]-[1,2,4]triazolo[1,5-a]pyridin-2-yl]amino]-N-methyl-N-(1-methyl-4-piperidyl)benzamide] | 163 nM |
| CN1CCC(N(C)C(=O)c2ccc(Nc3nc4c(C5=CCN(C(=O)N6CC(C#N)C6)CC5)cccn4n3)cc2)CC1 [Example 2-5, 4-[[8-[1-(3-cyanoazetidine-1-carbonyl)-3,6-dihydro-2H-pyridin-4-yl]-[1,2,4]triazolo[1,5-a]pyridin-2-yl]amino]-N-methyl-N-(1-methyl-4-piperidyl)benzamide] | 1090 nM |
| CN1CCC(N(C)C(=O)c2ccc(Nc3nc4c(C5=CCN(C(=O)OCC#N)CC5)cccn4n3)cc2)CC1 [Example 2-7, cyanomethyl 4-[2-[4-[methyl-(1-methyl-4-piperidyl)carbamoyl]anilino]-[1,2,4]triazolo[1,5-a]pyridin-8-yl]-3,6-dihydro-2H-pyridine-1-carboxylate] | 42.9 nM |
